“Also recorded” adds a separate entry of the source.
How the values were obtained:
[1] = test system: HSF-1 knockout MEFs; assay: Apoptosis assay, KNK437 with bortezomib; assay type: cell-based, mouse; settings: 24 hours
Experimental: (§1) ANBL-6 and KAS-6 cells were incubated with 10 mcg/ml (ANBL-6) or 1 mcg/ml (KAS-6) of CNTO 328 or the control antibody, F105, for 8 (ANBL-6) to 12 (KAS-6) hours. Apoptosis was determined using an ELISA-based assay that measures the presence of mono- and oligo-nucleosomes (Roche Applied Science, Indianapolis, Ind.) and expressed as a fold increase in apoptosis over DMSO and F105-treated controls. Cells were treated in RPMI 1640 media containing 10% FBS and 1 ng/mL of IL-6 (FIGS. 3 A and B, column height represents the mean of triplicate cultures; bars, SEM).
(§2) ANBL-6 or MEF cells (control and HSF-1−/−) were incubated with either DMSO control or increasing concentrations of bortezomib and KNK437 for 12 (ANBL-6) to 24 hours (MEFs). Apoptosis was determined as described above and expressed as a fold increase in apoptosis over DMSO-treated controls. ANBL-6 cells were treated in RPMI 1640 media containing 10% FBS and 1 ng/mL of IL-6 (FIG. 5, columns, mean of triplicate cultures; bars, SEM).

[2] = test system: KAS-6 cells; assay: Apoptosis, KNK437 with bortezomib; assay type: cell-based
[3] = test system: normal mouse embryo fibroblasts (MEFs); assay: Apoptosis assay, KNK437 with bortezomib; assay type: cell-based; settings: normal (HSF-1+/+) MEFs, 24 hours
Experimental: as §1, §2

[4] = test system: ANBL-6 cells; assay: Apoptosis assay, KNK437 with bortezomib; assay type: cell-based; settings: ANBL-6, KNK437 with bortezomib, 12 hours, compared with control treated cells
Experimental: as §1, §2

[5] = test system: proteasome; settings: over human leukocyte elastase, cathepsin G, chymotrypsin and thrombin; cited from earlier work
[6] = test system: refractory or relapsed myeloma; settings: refractory or relapsed disease, initial phase II clinical trial (Richardson et al. 2003); cited from earlier work
[7] = test system: IL-6 signaling, HSP-70 and MKP-1 in ANBL-6 cells; assay: Immunoblot analysis of IL-6 signaling, HSP-70 and MKP-1 with densitometry; assay type: cell-based
Experimental: ANBL-6 cells were incubated with 10 mcg/ml of CNTO 328 or the control antibody, F105, with or without increasing concentrations of bortezomib for 8 hours. Cell lysates were prepared and subjected to immunoblot analysis. Blots were stripped and probed for HSC-70 to ensure equal protein loading per lane. Densitometry was performed on HSP-70 and MKP-1 immunoblots.

[8] = test system: IL-6-independent myeloma cell line RPMI 8226; assay: ELISA-based apoptosis assay, antibody and bortezomib; assay type: cell-based; settings: RPMI 8226, data not shown
[9] = test system: KAS-6 cells; assay: ELISA-based apoptosis assay (mono- and oligo-nucleosomes), antibody and bortezomib; assay type: cell-based; settings: KAS-6, 1 mcg/ml CNTO 328 with bortezomib, 12 hours
Experimental: as §1

[10] = test system: ANBL-6 cells; assay: as above; assay type: cell-based; settings: ANBL-6, 10 mcg/ml CNTO 328 with bortezomib, 8 hours
Experimental: as §1

[11] = test system: IL-6-independent RPMI 8226 myeloma cell line; assay: WST-1 cell viability, antibody combined with bortezomib; assay type: cell-based; settings: RPMI 8226, 10 mcg/ml antibody pre-incubated 24 hours, then bortezomib 24 hours
Experimental: (§3) ANBL-6 and KAS-6 cells (Dr. Diane Jelinek, Mayo Clinic, Rochester, Minn.) were incubated with increasing concentrations of CNTO 328 or the isotype control antibody, F105, for 24 and 48 hours. For the last 4 hours, the cells were incubated in the presence of WST-1 (Roche Applied Science, Indianapolis, Ind.). Reduction of WST-1 into a water soluble formazan salt by viable cells was measured at an absorbance of 450 nm using an ELISA plate reader. Viability was measured as percent viability relative to untreated cells. All cells were treated in RPMI 1640 media containing 10% FBS and 1 ng/mL of IL-6.
(§4) The ANBL-6, KAS-6, or IL-6-independent RPMI 8226 myeloma cell lines were pre-incubated with 0.1 mcg/ml (KAS-6) or 10 mcg/ml (ANBL-6 and RPMI 8226) of the control antibody, F105, or CNTO 328 for 24 hours, followed by co-incubation with either DMSO control or increasing concentrations of bortezomib in the continued presence of F105 or CNTO 328 for another 24 hours. For sequencing experiments, ANBL-6 cells were treated with: 1) F105 or CNTO 328 for 24 hours followed by F105 or CNTO 328 and bortezomib 5 nM for another 24 hours (antibody→bortezomib); 2) F105 or CNTO 328 and bortezomib 5 nM concurrently for 24 hours (antibody+bortezomib), or bortezomib at 5 nM for 12 hours followed by F105 or CNTO 328 for 24 hours (bortezomib→antibody). Cell viability was assayed as described above and measured as percent viability relative to untreated cells. All cells were treated in RPMI 1640 media containing 10% FBS and 1 ng/mL of IL-6. Columns, mean of quintuplicate cultures; bars, SEM.

[12] = test system: KAS-6 cells; assay: as above; assay type: cell-based; settings: KAS-6, 0.1 mcg/ml antibody pre-incubated 24 hours, then bortezomib 24 hours; relative to control antibody F105
Experimental: as §3, §4

[13] = test system: ANBL-6 cells; assay: as above; assay type: cell-based
Experimental: as §3, §4

[14] = test system: IL-6 signaling in KAS-6 cells; assay: Down-regulation of IL-6 signaling (phospho-protein levels); assay type: cell-based
[15] = test system: KAS-6 cells; assay: WST-1 cell viability, antibody alone; assay type: cell-based; settings: increasing concentrations, 24 and 48 hours, 1 ng/mL of IL-6
Experimental: as §3

[16] = test system: ANBL-6 cells; assay: WST-1 cell viability, antibody alone; assay type: cell-based; settings: increasing concentrations, 24 and 48 hours, 1 ng/mL of IL-6
Experimental: as §3

[17] = 10 mcg/ml CNTO 328 with bortezomib, 8 hours, densitometry
[18] = CNTO 328 with bortezomib, immunoblot

What does the source list for `O=CN1CC/C(=C\c2ccc3c(c2)OCO3)C1=O` [KNK437]?
synergistic activity with bortezomib (apoptosis) [1]: blunted; apoptotic activity of bortezomib [2]: enhanced the apoptotic activity of bortezomib; synergistic activity with bortezomib (apoptosis) [3]: reproduced; bortezomib-mediated apoptosis (fold increase over DMSO-treated controls) [4]: significant increase in bortezomib-mediated apoptosis

Which “selectivity for the proteasome over other serine proteases” value [5] does the source give for `CC(C)C[C@H](NC(=O)[C@H](Cc1ccccc1)NC(=O)c1cnccn1)B(O)O` [bortezomib, reference compound] here?
The value was greater than 500 fold.

What about the “patients with partial responses or better” value [6] of the same compound?
The value was 27%.

What about the “levels of phospho-STAT-3” value ([7]; 8 hours, immunoblot) of the same compound?
The value was “decreased levels”.

What about the “levels of phospho-p42/44 MAPK” value ([7]; 8 hours, immunoblot) of the same compound?
Its value is “decreased levels”.

Which potentiation of apoptosis [8] does the source give for “CNTO 328: chimeric monoclonal IL-6 neutralizing antibody” here?
The potentiation of apoptosis was “not able to potentiate apoptosis”.

And the “induction of apoptosis (fold increase over DMSO and F105-treated controls)” value [9]?
Its value is “enhanced induction of apoptosis; also recorded: greater than the sum of the two individual agents alone”.

And the “induction of apoptosis (fold increase over DMSO and F105-treated controls)” value [10]?
Its value is “enhanced induction of apoptosis; also recorded: greater than the sum of the two individual agents alone”.

What about the “effect on activity of bortezomib (cell viability)” value [11] of the same compound?
Its value is “did not enhance the activity of bortezomib”.

And the “effect on cytotoxicity of bortezomib (cell viability)” value [12]?
Its value is “potentiated the cytotoxicity of bortezomib”.

What about the “effect on cytotoxicity of bortezomib (cell viability)” value ([13]; ANBL-6, 10 mcg/ml antibody pre-incubated 24 hours, then bortezomib 24 hours, relative to control antibody F105) of the same compound?
Its value is “potentiated the cytotoxicity of bortezomib”.

What about the “effect on cytotoxicity of bortezomib, sequencing” value (“effect … sequencing” for short) ([13]; ANBL-6, antibody 24 hours followed by antibody and bortezomib 5 nM 24 hours (antibody→bortezomib)) of the same compound?
Its value is “enhanced the cytotoxicity of bortezomib most”.

And the “effect … sequencing” value ([13]; ANBL-6, antibody and bortezomib 5 nM concurrently for 24 hours (antibody+bortezomib))?
Its value is “enhanced the cytotoxicity of bortezomib most”.

And the “effect … sequencing” value ([13]; ANBL-6, bortezomib 5 nM 12 hours followed by antibody 24 hours (bortezomib→antibody))?
Its value is “little additional effect”.

And the “phospho-STAT-3 and phospho-p42/44 MAPK levels” value [14]?
The value was “marked decrease”.

And the “decrease of bortezomib-mediated induction of HSP-70” value [7, 17]?
The value was 45%.

And the “decrease of bortezomib-mediated induction of MKP-1” value [7, 17]?
The value was 90%.

And the “levels of phospho-STAT-3” value ([7]; 8 hours, immunoblot)?
Its value is “reduction in levels”.

What about the “levels of phospho-p42/44 MAPK” value ([7]; 8 hours, immunoblot) of the same compound?
Its value is “reduction in levels”.

What about the “levels of hyperphosphorylated HSF-1” value [7, 18] of the same compound?
The value was “decreased levels”.

What about the “levels of transcriptionally active phospho-STAT-1” value [7, 18] of the same compound?
The value was “decreased levels”.

And the “cell viability (percent viability relative to untreated cells)” value [15]?
The value was “dose- and time-dependent reduction in cell viability”.

And the “cell viability (percent viability relative to untreated cells)” value [16]?
The value was “dose- and time-dependent reduction in cell viability”.

Reference: patent US20090022726A1, “METHOD OF USING IL6 ANTAGONISTS WITH PROTEASOME INHIBITORS” (priority 2005, published 2009)
